Data from paper PMC11089506 (Journal of Medicinal Chemistry, 2024).
pIC50, pKi: −log10 of the molar value. Structures can show the parent of a compound that is named as a salt.

Key:
human 5-HT2BR = target: T1, human 5-HT2BR (Homo sapiens, UniProt P41595); assay: [125I]DOI competition binding assay
T1 construct: host or cells: HEK293 (membrane homogenates)
Method: (§1) Following incubation, the samples were filtered rapidly under vacuum through glass fiber filters (GF/B, Packard) presoaked with 0.3% polyethylenimine and rinsed several times with ice cold wash buffer (50 mM Tris-HCl, pH 7.4) using a 96-sample cell harvester (Unifilter, Packard). The filters were dried and then counted for radioactivity in a scintillation counter (Topcounter, Packard) using a scintillation cocktail (Microscint-0, Packard).

human 5-HT2CR = human 5-HT2CR (Homo sapiens, UniProt P28335); assay: [125I]DOI competition binding assay
Method: as §1

5-HT1D = target: T2, 5-HT1D (Rattus norvegicus, UniProt P28565); assay: radioligand competition binding, [3H]serotonin
T2 construct: Eurofins

5-HT6 = target: T3, 5-HT6 (Homo sapiens, UniProt P50406); assay: radioligand competition binding, [3H]LSD
T3 construct: Eurofins

5-HT7 = target: T4, 5-HT7 (Homo sapiens, UniProt P34969); assay: radioligand competition binding, [3H]LSD
T4 construct: Eurofins

[1] = target: T5, α1D (adrenergic receptor) (Homo sapiens, UniProt P25100); assay: radioligand competition binding, [3H]Prazosin
T5 construct: Eurofins

[2] = target: T6, α2C (adrenergic receptor) (Homo sapiens, UniProt P18825); assay: radioligand competition binding, [3H]RX 821002
T6 construct: Eurofins

β2 (adrenergic receptor) = target: T7, β2 (adrenergic receptor) (Homo sapiens, UniProt P07550); assay: radioligand competition binding, [3H](-)CGP 12177
T7 construct: Eurofins

[3] = target: T8, D2S (dopaminergic receptor) (Homo sapiens, UniProt P14416); assay: radioligand competition binding, [3H]7-OH-DPAT; conditions: read-out: % inhibition of the specific radioligand binding
T8 construct: Eurofins

[4] = target: T9, D4.4 (dopaminergic receptor) (Homo sapiens, UniProt P21917); assay: radioligand competition binding, [3H]methyl-spiperone; conditions: read-out: % inhibition of the specific radioligand binding
T9 construct: Eurofins

[5] = target: T10, H1 (histaminergic receptor) (Homo sapiens, UniProt P35367); assay: radioligand competition binding, [3H]pyrilamine
T10 construct: Eurofins

M2 (muscarinic receptor) = target: T11, M2 (muscarinic receptor) (Homo sapiens, UniProt P08172); assay: radioligand competition binding, [3H]AF-DX 384
T11 construct: Eurofins

SERT = target: T12, SERT (Homo sapiens, UniProt P31645); assay: radioligand competition binding, [3H]imipramine
T12 construct: Eurofins

DAT = target: T13, DAT (Homo sapiens, UniProt Q01959); assay: radioligand competition binding, [3H]BTCP
T13 construct: Eurofins

Bradykinin receptor B1 = target: T14, Bradykinin receptor B1 (Homo sapiens, UniProt P46663); assay: radioligand competition binding, [3H](Des-Arg10, Leu9)-Kallidin
T14 construct: Eurofins

Bradykinin receptor B2 = target: T15, Bradykinin receptor B2 (Homo sapiens, UniProt P30411); assay: radioligand competition binding, [3H]Bradykinin
T15 construct: Eurofins

Ca2+ Channel N-Type = Ca2+ Channel N-Type (Rattus norvegicus, UniProt Q02294); assay: biochemical; format: binding
Endothelin receptor ETA = target: T16, Endothelin receptor ETA (Homo sapiens, UniProt P25101); assay: radioligand competition binding, [125I]Endothelin-1
T16 construct: Eurofins

[6] = target: T17, Epidermal Growth Factor receptor (Homo sapiens, UniProt P00533); assay: radioligand competition binding, [125I]EGF
T17 construct: Eurofins

GABAB(1a,2) receptor = target: T18, GABAB(1a,2) receptor (Homo sapiens, UniProt Q9UBS5); assay: radioligand competition binding, [3H]CGP-54626
T18 construct: Eurofins

Imidazoline receptor I2 = assay: radioligand competition binding, [3H]Idazoxan; parameters: species or system rat
[7] = target: T19, Neuropeptide Y receptor Y1 (Homo sapiens, UniProt P25929); assay: radioligand competition binding, [125I]Peptide YY
T19 construct: Eurofins

[8] = target: T20, Nicotinic acetylcholine receptor (muscle-type) (Homo sapiens, UniProt P02708+P07510+Q07001); assay: radioligand competition binding, [125I]α-Bungarotoxin
T20 construct: Eurofins

Opioid receptor κ = target: T21, Opioid receptor κ (Homo sapiens, UniProt P41145); assay: radioligand competition binding, [3H]Diprenorphine (first line)
T21 construct: Eurofins

Opioid receptor μ = target: T22, Opioid receptor μ (Homo sapiens, UniProt P35372); assay: radioligand competition binding, [3H]Diprenorphine (second line)
T22 construct: Eurofins

[9] = target: T23, Platelet Activating Factor Receptor (Homo sapiens, UniProt P25105); assay: radioligand competition binding, [3H]PAF
T23 construct: Eurofins

Sigma receptor σ1 = target: T24, Sigma receptor σ1 (Homo sapiens, UniProt Q99720); assay: radioligand competition binding, [3H]Pentazocine
T24 construct: Eurofins (contract laboratory)

Tachykinin receptor NK2 = target: T25, Tachykinin receptor NK2 (Homo sapiens, UniProt P21452); assay: radioligand competition binding, [125I]Neurokinin A
T25 construct: Eurofins (contract laboratory)

Thyroid hormone receptor = assay: radioligand competition binding, [125I]Triiodothyronine; parameters: species or system rat
[10] = test system: various other targets (Table S4); assay: broad screen, radioligand binding competition assays (Eurofins), summary; conditions: high nanomolar or micromolar ranges
Androgen receptor (NHR) [11] = target: T26, Androgen receptor (NHR) (Homo sapiens, UniProt P10275); conditions: estimated from the % inhibition data
Androgen receptor (NHR) [12] = target: T26, Androgen receptor (NHR); assay: biochemical; conditions: read-out: % inhibition of the specific radioligand binding
[13] = target: NMDA receptor (Glutamate) (Rattus norvegicus, UniProt Q00959); assay: biochemical; conditions: read-out: % inhibition of the specific radioligand binding
[14] = estimated from the % inhibition data
[15] = read-out: % inhibition of the specific radioligand binding

COc1cc(C(F)(F)F)c(OC)cc1[C@@H]1CCCNC1 [(S)-11, 3-(2,5-Dimethoxy-4-(trifluoromethyl)phenyl)piperidine Hydrochloride]
5-HT2BR pKi ± S.E.M. (human 5-HT2BR; Table S3): 7.88 ± 0.07 | pKi (human 5-HT2BR; read-out: Ki at 5-HT2BR): 7.89 | 5-HT2CR pKi ± S.E.M. (human 5-HT2CR; Table S3): 7.89 ± 0.10 | pKi (human 5-HT2CR; read-out: Ki at 5-HT2CR): 7.89 | pIC50 (5-HT1D; [14]): 6.00 to 7.00 | inhibition at 0.1 µM (5-HT1D; [15]): 18% | inhibition at 1 µM (5-HT1D; [15]): 64% | inhibition at 10 µM (5-HT1D; [15]): 93% | pIC50 (5-HT6; [14]): 5.00 to 6.00 | inhibition at 1 µM (5-HT6; [15]): 24% | inhibition at 10 µM (5-HT6; [15]): 77% | pIC50 (5-HT7; [14]): 5.00 to 6.00 | inhibition at 1 µM (5-HT7; [15]): 17% | inhibition at 10 µM (5-HT7; [15]): 62% | pIC50 [1, 14]: < 5.00 | inhibition at 10 µM [1, 15]: 27% | pIC50 [2, 14]: < 5.00 | inhibition at 10 µM [2, 15]: 36% | pIC50 (β2 (adrenergic receptor); [14]): ~5.00 | inhibition at 1 µM (β2 (adrenergic receptor); [15]): 2% | inhibition at 10 µM (β2 (adrenergic receptor); [15]): 55% | inhibition at 10 µM [3]: 59% | inhibition at 10 µM [4]: 9% | pIC50 [5, 14]: 5.00 to 6.00 | inhibition at 1 µM [5, 15]: 19% | inhibition at 10 µM [5, 15]: 64% | pIC50 (M2 (muscarinic receptor); [14]): ~5.00 | inhibition at 10 µM (M2 (muscarinic receptor); [15]): 40% | pIC50 (SERT; [14]): < 5.00 | inhibition at 10 µM (SERT; [15]): 22% | pIC50 (DAT; [14]): < 5.00 | inhibition at 10 µM (DAT; [15]): 12% | pIC50 (Bradykinin receptor B1; [14]): < 5.00 | inhibition at 10 µM (Bradykinin receptor B1; [15]): 12% | pIC50 (Bradykinin receptor B2; [14]): < 5.00 | inhibition at 10 µM (Bradykinin receptor B2; [15]): 18% | pIC50 (Ca2+ Channel N-Type): < 5.00 | inhibition at 10 µM (Ca2+ Channel N-Type; [15]): -5% | pIC50 (Endothelin receptor ETA; [14]): < 5.00 | inhibition at 10 µM (Endothelin receptor ETA; [15]): 12% | pIC50 [6, 14]: < 5.00 | inhibition at 10 µM [6, 15]: -18% | pIC50 (GABAB(1a,2) receptor; [14]): < 5.00 | inhibition at 10 µM (GABAB(1a,2) receptor; [15]): 6% | % inhibition of the specific radioligand binding (Imidazoline receptor I2; (S)-11 10 μM, n=1): 17% | pIC50 (Imidazoline receptor I2; [14]): < 5.00 | pIC50 [7, 14]: < 5.00 | inhibition at 10 µM [7, 15]: -4% | pIC50 [8]: < 5.00 | inhibition at 10 µM [8, 15]: 3% | pIC50 (Opioid receptor κ; [14]): < 5.00 | inhibition at 10 µM (Opioid receptor κ; [15]): 18% | pIC50 (Opioid receptor μ; [14]): < 5.00 | inhibition at 10 µM (Opioid receptor μ; [15]): 18% | pIC50 [9, 14]: < 5.00 | inhibition at 10 µM [9, 15]: -11% | pIC50 (Sigma receptor σ1; [14]): 5.00 to 6.00 | inhibition at 10 µM (Sigma receptor σ1; [15]): 84% | pIC50 (Tachykinin receptor NK2; [14]): < 5.00 | inhibition at 10 µM (Tachykinin receptor NK2; [15]): 1% | % inhibition of the specific radioligand binding (Thyroid hormone receptor; (S)-11 10 μM, n=1): -1% | pIC50 (Thyroid hormone receptor; [14]): < 5.00 | binding affinities at the respective targets of the broad screen [10]: > 100 nM | pIC50 (Androgen receptor (NHR) [11]): < 5.00 | inhibition at 10 µM (Androgen receptor (NHR) [12]): 1% | inhibition at 10 µM [13]: -8%
